According to US20060210614A1, “Method of treatment of a metabolic disease using intranasal administration of exendin peptide” (Nastech Pharmaceutical Company Inc., priority 2003, published 2006):
Read-outs that look alike come from different tables or passages of the source.

Columns and labels:
[1] = tested on: normal, human-derived tracheal/bronchial epithelial cells (EpiAirway™ Tissue Model); settings: exenatide formulation containing the excipient; LDH and MTT
Protocol: The amount of cell death was assayed by measuring the loss of lactate dehydrogenase (LDH) from the cells using a CytoTox 96 Cytoxicity Assay Kit (Promega Corp., Madison, Wis.). Fresh, cell-free culture medium was used as a blank. 50 μl harvested media (stored at 4° C.) was loaded in a 96-well plate. Substrate Solution (50 μl) was added to each well and the plates were incubated for thirty (30) minutes at ambient temperature in the dark. Following incubation, 50 μl of Stop Solution was added to each well and the reaction was monitored at A490 using an optical density plate reader. Media alone applied to the apical side served as a negative control while triton X served as the positive control for the LDH assay.
The optical density of the samples was measured at A550 on an optical density plate reader (Molecular Devices, Palo Alto, Calif.). Media alone applied to the apical side served as a […] for the MTT assay.
A second round of studies, series B, systematically screened several excipients for their potential to enhance exenatide permeation to a greater degree than the Me-β-CD, DDPC, EDTA, and gelatin combinations. […] As with series A formulations, each formulation was evaluated for exenatide permeation, ability to reduce TER while not adversely affecting cell viability, and formulation physical stability.

[2] = Physical stability (clarity, absorbance at 630 nm) after storage at 5° C.
Protocol: In vitro optimization of the exenatide formulation included a preservatives screen. Physical stability after storage at 5° C. was measured for all formulations tested in vitro. Exenatide formulations were placed in 1 cc glass vials and closed with trifoil lined caps and stored at 5° C. for at least two weeks. Physical stability was monitored by measuring clarity. Clarity of a formulation was determined by measuring absorbance at 630 nm, using the μQuant optical density plate reader for each formulation at days 0, 7, and 14. A 200 μL volume from each vial was placed in a 96-well plate and read against a background of water.
Varying concentrations of sodium benzoate (NaBenz) and benzalkonium chloride (BAK), were screened for their effect on physical stability of the three formulations used in in vivo studies. Sodium benzoate was added at […], while BAK was tested at 0.2, 1.0, 2.0, and 4.0 mg/mL. To prepare the samples, varying amounts of stock solutions of the two preservatives were added to the three prepared formulations dosed in the PK study. […] The resulting formulations were stored at 5° C. for 5.5 weeks. Physical stability was monitored by measuring the absorbance of the solution at 630 nm.
Sodium benzoate was added at concentrations of 1.0 to 5.0 mg/mL, while BAK was tested at 0.05, 0.075, and 0.1 mg/mL. To prepare the samples, varying amounts of stock solutions of the two preservatives were added to the formulations prepared in the PK study and the pH was adjusted to 4.5 with HCl as necessary. The resulting formulations were stored at 5° C. for 4 weeks. Physical stability was monitored by measuring the absorbance of the solution at 630 nm.

[3] = tested on: epithelial tissue barrier (EpiAirway™ Tissue Model); assay: In vitro permeation of Fluorescein-Exendin-4 across the cellular barrier; settings: for Fold increase in exenatide permeation over AKL-225-126-2: one hour incubation, full dose volume
Text: A standard curve was generated over the relevant quantitation range. […] Initial studies focused on optimizing the concentrations of Me-β-CD, DDPC, EDTA and gelatin to enhance exenatide permeation across an epithelial tissue layer.

[4] = tested on: aminopeptidases; settings: cited from earlier work
[5] = aqueous solution at physiologic pH; cited from earlier work
[6] = anesthetized rats, cited from earlier work
[7] = tested on: normal, human-derived tracheal/bronchial epithelial cells (EpiAirway™ Tissue Model); assay: Transepithelial Electrical Resistance (TER) measurements using an in vitro nasal epithelial model; format: cell-based; settings: 60 minute exposure
Text: The cell line MatTek Corp. (Ashland, Mass.) was used as the source of normal, human-derived tracheal/bronchial epithelial cells (EpiAirway™ Tissue Model). The cells are highly differentiated and retain all the properties of respiratory epithelial tissue. The cells were provided as inserts grown to confluence on Millipore Milicell-CM filters comprised of transparent hydrophilic Teflon (PTFE). […] TER measurements were accomplished using the Endohm-12 Tissue Resistance Measurement Chamber connected to the EVOM Epithelial Voltohmmeter (World Precision Instruments, Sarasota, Fla.) with the electrode leads. The electrodes and a tissue culture blank insert were equilibrated for at least twenty (20) minutes in phosphate buffered solution with the power off prior to checking calibration. The background resistance was measured with 1.5 mL media in the Endohm tissue chamber and 300 μL media in a blank Millicell-CM insert. […] The background resistance of the blank insert was 5-12 ohms.
TER was measured before and after the sixty (60) minute incubation. […] After the 60 minute incubation with test samples, 200 μL of fresh media was gently added to the apical surface of each test sample insert and final TER was measured for each insert. […] Resistance is expressed as follows: (resistance measured−blank)×0.6 cm^2.

[8] = 5° C. (refrigerated), at least two weeks, absorbance at 630 nm

CCCCCCCCCCCCCCCC(=O)OC(CC(=O)[O-])C[N+](C)(C)C (racemic) [Palmitoyl-DL-carnitine, palmitoyl-DL-carnitine]
Toxicity / cell viability (in words) [1]: toxic at high concentrations
Physical stability / clarity (in words) [2, 8]: physically instable without Me-β-CD

O=C(O)CN(CCN(CC(=O)O)CC(=O)O)CC(=O)O [EDTA, ethylene diamine tetraacetic acid]
Toxicity / cell viability (in words) [1]: at 10 mg/mL EDTA, cell viability began to decrease

CCCCCCCCO[C@H]1O[C@H](CO)[C@@H](O)[C@H](O)[C@H]1O [Octyl-α-glucopyranoside]
Fold increase in exenatide permeation over AKL-225-126-2 [3]: not more than 1.5 fold

C[C@H](CCC(=O)NCC(=O)[O-])[C@H]1CC[C@H]2[C@@H]3[C@H](O)C[C@@H]4C[C@H](O)CC[C@]4(C)[C@H]3C[C@H](O)[C@]12C.[Na+] [Sodium glycocholate, sodium glycocholate]
Physical stability / clarity (in words) [2, 8]: physically instable at high concentrations

CCCCCCCC/C=C\CCCCCCCC(=O)OCCOCC(OCCO)C1OCC(OCCO)C1OCCO (stereo not drawn) [Tween-80]
Exenatide permeation across the tissue barrier (in words) ([3]; human, 1 h): failed to enhance exenatide permeation to the same extent as formulation AKL-225-126-2

CCCCCCCCCCCCC[N+](C)(C)Cc1ccccc1 [benzalkonium chloride (BAK), benzalkonium chloride]
Toxicity / cell viability (in words) [1]: decreasing cell viability with increasing BAK concentration
Physical stability / clarity (in words) [2]: remained physically stable for two weeks at 5 °C

CC(C)CC(N)B(O)O (stereo not drawn) [boro-leucine]
Times more effective in enzyme inhibition than bestatin [4]: more than 100 times
Times more effective in enzyme inhibition than puromycin [4]: more than 1000 times

CCN(CC)/[N+]([O-])=N/O.CCNCC [diethylamine/NO]
Rate (time) of NO release [5]: < 3 min

NCCN(CCN)/[N+]([O-])=N/O [diethylenetriamine/NO]
Rate (time) of NO release [5]: approximately 20 hours

CCCCCCCCC(=O)OC[C@H](COP(=O)([O-])OCC[N+](C)(C)C)OC(=O)CCCCCCCC [dinonanoyl glycero phosphatidylcholine, Di Nonanoyl Glycero Phosphatidylcholine (9:0)]
Physical stability / clarity (in words) [2, 8]: becoming turbid in less than two weeks at refrigerated conditions

CCCCCCCCO[C@@H]1O[C@H](CO)[C@H](O)[C@H](O)[C@H]1O [galactopyranoside, n-Octyl-β-D-galactopyranoside]
Toxicity / cell viability (in words) [1]: toxic at 10 mg/mL

CCCCCCCCO[C@@H]1O[C@H](CO)[C@@H](O[C@H]2O[C@H](CO)[C@@H](O)[C@H](O)[C@H]2O)[C@H](O)[C@H]1O [n-octyl-β-D-maltopyranoside, n-Octyl-β-D-maltopyranoside]
Fold increase in exenatide permeation over AKL-225-126-2 [3]: not more than 1.5 fold

CCCCCCCC/C=C\CCCCCCCC(=O)O [oleic acid]
Toxicity / cell viability (in words) [1]: 3 mg/mL oleic acid resulted in lowered cell viability

O=C([O-])c1ccccc1.[Na+] [sodium benzoate]
Physical stability / clarity (in words) [2, 8]: 2 mg/mL of more sodium benzoate became turbid within 14 days at 5 °C

CCCCCCCCCC(=O)[O-].[Na+] [sodium caprate]
Toxicity / cell viability (in words) [1]: low cell viability at 50 mM alone
Physical stability / clarity (in words) [2, 8]: physical instability in the absence of Me-β-CD

CCCCCCCC(=O)[O-].[Na+] [sodium caprylate]
Toxicity / cell viability (in words) [1]: toxic at 20 mM with Me-β-CD and EDTA
Physical stability / clarity (in words) [2, 8]: physical instability in the absence of Me-β-CD

OC[C@H]1O[C@@H]2O[C@H]3[C@H](O)[C@@H](O)[C@@H](O[C@H]4[C@H](O)[C@@H](O)[C@@H](O[C@H]5[C@H](O)[C@@H](O)[C@@H](O[C@H]6[C@H](O)[C@@H](O)[C@@H](O[C@H]7[C@H](O)[C@@H](O)[C@@H](O[C@H]8[C@H](O)[C@@H](O)[C@@H](O[C@H]1[C@H](O)[C@H]2O)O[C@@H]8CO)O[C@@H]7CO)O[C@@H]6CO)O[C@@H]5CO)O[C@@H]4CO)O[C@@H]3CO [β-cyclodextrin]
Physical stability / clarity (in words) [2, 8]: became turbid at refrigerated conditions

Dodecanoylsucrose
Fold increase in exenatide permeation over AKL-225-126-2 [3]: not more than 1.5 fold
Toxicity / cell viability (in words) [1]: toxic at 10 mg/mL

dimethyl-β-cyclodextrin [DMe-β-CD]
Fold increase in exenatide permeation over AKL-225-126-2 [3]: 1.5 fold
Toxicity / cell viability (in words) [1]: more toxic to the cells than Me-β-CD

human growth hormone: human growth hormone given nasally to anesthetized rats, without and with N-acetyl-L-cysteine
Nasal bioavailability of human growth hormone ([6]; with N-acetyl-L-cysteine (ACS)): 12.2%
Nasal bioavailability of human growth hormone ([6]; without N-acetyl-L-cysteine): 7.5%

hydroxypropyl-β-cyclodextrin [HP-β-CD]
Exenatide permeation across the tissue barrier (in words) ([3]; excipient screen, compared with AKL-225-126-2 or control without enhancers): did not increase permeation significantly

triton X
Effect on TER (in words) [7]: lowest possible TER
